Data reported in patent publication US20080312250A1, “Combination Comprising a Bcrp Inhibitor and 4- (4-Methylpiperazin-1-Ylmethyl)-N-[4-Methyl-3- (4-Pyridin-3-Yl) Pyrimidin-2-Ylamino) Phenyl] -Benzamide” (THE NETHERLANDS CANCER INSTITUTE, priority 2005, published 2008).

How the values were obtained:
murine Bcrp1 = target: T1, murine Bcrp1 (Mus musculus, UniProt Q7TMS5); test: Transport of Compound I across MDCKII-Bcrp1 monolayers; type: in vitro ADME
T1 construct: expressed in transfected cells; host or cells: MDCKII (Madin-Darby canine kidney strain II) cells, stably transfected
T1 sequence (Q7TMS5 1-657): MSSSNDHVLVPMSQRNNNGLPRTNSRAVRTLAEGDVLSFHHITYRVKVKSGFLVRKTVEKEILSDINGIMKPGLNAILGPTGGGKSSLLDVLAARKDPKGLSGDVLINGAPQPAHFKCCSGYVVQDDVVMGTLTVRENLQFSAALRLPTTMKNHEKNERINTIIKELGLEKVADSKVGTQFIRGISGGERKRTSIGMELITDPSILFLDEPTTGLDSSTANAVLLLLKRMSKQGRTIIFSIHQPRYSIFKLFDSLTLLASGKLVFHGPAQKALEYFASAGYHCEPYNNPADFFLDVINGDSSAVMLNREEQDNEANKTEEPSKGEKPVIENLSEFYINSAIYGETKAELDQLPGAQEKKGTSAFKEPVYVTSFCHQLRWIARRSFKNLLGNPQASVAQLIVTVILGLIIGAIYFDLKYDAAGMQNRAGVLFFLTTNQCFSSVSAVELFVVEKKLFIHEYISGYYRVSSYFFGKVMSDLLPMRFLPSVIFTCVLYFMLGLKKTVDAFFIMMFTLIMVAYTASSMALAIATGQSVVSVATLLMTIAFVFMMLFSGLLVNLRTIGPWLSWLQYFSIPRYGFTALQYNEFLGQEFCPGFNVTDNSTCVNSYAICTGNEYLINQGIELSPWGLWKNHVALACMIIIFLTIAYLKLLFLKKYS
Method: Transport across MDCKII monolayers. […] Animals.
Transport of Compound I across MDCKII monolayers. […] To exclude any contribution of P-gp (12), the P-gp inhibitor zosuquidar (5 μM) is added (18).

Bcrp1 = target: T2, Bcrp1 (Mus musculus, UniProt Q7TMS5); test: Effect of pantoprazole and elacridar on Bcrp1-mediated transport of Compound I in MDCKII transfected cells; type: in vitro ADME, murine; details: 1 μM Compound I, zosuquidar 5 μM added for pantoprazole, data not shown
T2 construct: expressed in transfected cells; host or cells: MDCKII (Madin-Darby canine kidney strain II) cells, stably transfected
T2 sequence (Q7TMS5 1-657): T1 sequence (Q7TMS5 1-657)
Method: Transport across MDCKII monolayers. The MDCKII (Madin-Darby canine kidney strain II) cells are cultured in Dulbecco's Modified Eagle's Medium supplemented with 10% fetal calf serum and 100 units penicillin/streptomycin per ml. Cells are grown at 37° C. with 5% CO2 under humidifying conditions. […] Animals. […] Mice are housed and handled according to institutional guidelines complying with Dutch legislation.
In the experiments in which the effect of pantoprazole is studied, the P-gp inhibitor zosuquidar (5 μM) is added to exclude any contribution of P-gp.

P-gp = details: single dose of elacridar; approximately; cited from earlier work

For `Cc1ccc(NC(=O)c2ccc(CN3CCN(C)CC3)cc2)cc1Nc1nccc(-c2cccnc2)n1` [Compound I], the “net active transport of Compound I by Bcrp1” value (murine Bcrp1; 1 and 10 μM Compound I, MDCKII-Bcrp1 and parental cells, P-gp inhibitor zosuquidar 5 μM added) was “approximately 20 % per h” and the “concentration above which Bcrp1 transport of Compound I is saturable” value (murine Bcrp1; MDCKII-Bcrp1, zosuquidar 5 μM added) was “above 10 μM”.

For `COc1cc2c(cc1OC)CN(CCc1ccc(NC(=O)c3cccc4c(=O)c5cccc(OC)c5[nH]c34)cc1)CC2` [elacridar], the “effect on Bcrp1-mediated transport of Compound I” value (Bcrp1) is listed as “inhibit” and the P-gp inhibition (P-gp) is listed as 70-80%.
